Where a SMILES comes first, the peptide text is derived from it. The star is where a group is joined. X1 = CC(C)CC(CP(=O)(O)[C@@H](N)CCc1ccccc1)C(=O)*

In the experiment the target is Leucyl-cystinyl aminopeptidase (Homo sapiens) (UniProt Q9UIQ6). Kind of experiment: Inhibition of human IRAP using L-leucine 7-amido-4-methyl coumarin substrate by microplate fluorescence reader based assay.
Leucyl-cystinyl aminopeptidase (Homo sapiens), sequence (Q9UIQ6 whole entry, looked up): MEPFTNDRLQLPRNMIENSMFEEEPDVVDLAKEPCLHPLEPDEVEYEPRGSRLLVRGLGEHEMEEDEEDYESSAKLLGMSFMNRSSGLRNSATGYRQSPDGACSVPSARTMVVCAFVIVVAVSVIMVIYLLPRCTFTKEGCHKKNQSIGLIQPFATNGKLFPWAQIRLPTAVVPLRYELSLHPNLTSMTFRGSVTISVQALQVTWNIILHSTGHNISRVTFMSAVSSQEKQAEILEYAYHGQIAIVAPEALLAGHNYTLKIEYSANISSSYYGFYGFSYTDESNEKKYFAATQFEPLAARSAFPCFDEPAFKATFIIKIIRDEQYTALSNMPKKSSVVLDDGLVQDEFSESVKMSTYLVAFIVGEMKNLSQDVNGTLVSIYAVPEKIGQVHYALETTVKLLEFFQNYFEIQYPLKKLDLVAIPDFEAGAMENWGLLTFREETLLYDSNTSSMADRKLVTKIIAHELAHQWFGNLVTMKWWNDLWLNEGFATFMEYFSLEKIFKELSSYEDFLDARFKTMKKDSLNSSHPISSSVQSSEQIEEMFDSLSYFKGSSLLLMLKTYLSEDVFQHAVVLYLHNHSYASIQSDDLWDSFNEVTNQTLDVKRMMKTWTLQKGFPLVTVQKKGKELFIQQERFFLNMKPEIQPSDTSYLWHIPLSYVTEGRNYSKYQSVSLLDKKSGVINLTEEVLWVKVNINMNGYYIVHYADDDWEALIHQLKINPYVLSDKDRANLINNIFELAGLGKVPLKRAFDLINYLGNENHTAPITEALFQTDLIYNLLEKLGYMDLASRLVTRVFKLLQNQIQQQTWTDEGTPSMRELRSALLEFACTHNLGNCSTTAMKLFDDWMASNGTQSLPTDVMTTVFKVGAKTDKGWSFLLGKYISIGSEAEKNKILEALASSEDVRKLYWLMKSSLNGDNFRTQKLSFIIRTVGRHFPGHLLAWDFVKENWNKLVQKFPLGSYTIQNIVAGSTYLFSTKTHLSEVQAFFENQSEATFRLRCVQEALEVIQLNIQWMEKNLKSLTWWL
The term IC50 denotes the concentration needed to halve the response being measured. Higher therefore signals a need for much substance. On to `C#CC[C@H](CP(=O)(O)[C@@H](N)CCc1ccccc1)C(=O)N[C@@H](Cc1ccccc1)C(N)=O`, for which half-maximal inhibition (IC50) was put at 2 nM.

In turn, `NC(=O)[C@H](Cc1ccccc1)NC(=O)[C@H](CCC(c1ccccc1)c1ccccc1)CP(=O)(O)[C@@H](N)CCc1ccccc1` came in with an IC50 of 32 nM.

Molecule `CC(C)CC(CP(=O)(O)[C@@H](N)CCc1ccccc1)C(=O)N[C@@H](CCCCN)C(=O)N[C@@H](Cc1cnc[nH]1)C(=O)N[C@@H](Cc1cnc[nH]1)C(=O)N[C@@H](C)C(=O)N[C@@H](Cc1ccccc1)C(=O)N[C@@H](CO)C(=O)N[C@@H](Cc1ccccc1)C(=O)N[C@@H](CCCCN)C(N)=O` (stereo partly drawn) (X1-KHHAFSFK-NH2) gave an IC50 of 7.7 nM. Against the preceding molecule, the IC50 is about 4.2-fold lower.

Source of the values: BindingDB's records for doi:10.1016/j.bmcl.2019.02.034 (Wroclaw University of Technology, 2019).
